A short description of data set [1]: Phase 1 trial, rivastigmine and trospium administrations: rivastigmine blood serum concentration time profile (FIG. 2B). To be noted: 6 mg rivastigmine fed state one hour after 20 mg trospium fasting (subject 1008) versus simultaneous fasting (1001, 1002, 1005). The procedure: Patients 1001, 1002, and 1005 were administered trospium and rivastigmine simultaneously in a fasting state. Subject 1008 was administered trospium and rivastigmine in fasting and fed states, respectively.

Data set [2] in a line: Phase 1 trial, rivastigmine and glycopyrrolate administrations: rivastigmine blood serum concentration time profile (FIG. 2A). The text has this: The serum rivastigmine levels were obtained over the course of twelve hours post-administration.

The values below come from US12109202B2, “Fixed dose combination of cholinesterase inhibitor and a quaternary ammonium antimuscarinic agent to treat neurodegenerative cognitive disorders” (priority 2021, dated 2024).

As to `CCN(C)C(=O)Oc1cccc([C@H](C)N(C)C)c1` [rivastigmine], the “peak rivastigmine blood serum level, taken with food” value in data set [1] was “attenuated peak rivastigmine levels”. Also, in data set [2] (patient 1006, co-formulated drug delivery element with glycopyrrolate taken in a fasting state, 12 hours post dose), the “rivastigmine blood serum concentration (time profile)” value was found to be 10 ng/mL. Moreover, in data set [2] (patients 1010 and 1011, glycopyrrolate fasted, rivastigmine with food one hour later), the “adverse effects, separate versus simultaneous administration” value is “reduced adverse effects, particularly nausea”. In addition, the “peak rivastigmine serum concentration, separate versus simultaneous administration” value in data set [2] (patients 1010 and 1011, glycopyrrolate fasted, rivastigmine with food one hour later, compared with patients 1003, 1004 coadministered fasted) is “delayed peak serum concentration associated with lower peak rivastigmine levels”.
